Source: patent US11389537B2, “Drug delivery system for sustained delivery of bioactive agents” (UPM-Kymmene Corporation, priority 2011, dated 2022)
≈ marks a conversion by molar mass, not a printed value. Where a name gives a salt, the structure may show the parent alone. Read-outs that look alike come from different tables or passages of the source.

Experiments:
[1] = cited from earlier work
[2] = Contact angle between matrix surface and water drop; details: water drop on matrix surface or pure drug
[3] = Stability in water solution of tested drugs; format: physicochemical
Excerpt: (§1) NFC has strong affinity to water, which makes drying it difficult. The residence time in the spray-drying chamber is short and therefore high temperature needs to be used in drying. If lower temperature and/or higher feeding rates were to be used, the wet material would adhere to the chamber. The application of high temperature when spray drying the aqueous suspension of NFC containing an API, increases the risk of degradation of the API during the drying process. High temperature is also a limitation for the choice of the API if its melting point is low (Table 11, showing the values of melting point (Tm), water solubility and stability in water solution of tested drugs). Generally, particles reach a maximum temperature during spraying, which is 15-20° C. below the outlet temperature of a co-current dryer.

[4] = Solubility in water of tested drugs; format: physicochemical; details: value obtained from testing
Excerpt: as §1, with “dryer. During the particle production outlet temperatures were in the range of 120-127° C., which was sufficient for successful drying.” for “dryer.”

## CC(C)Cc1ccc(C(C)C(=O)O)cc1 (stereo not shown) [Ibuprofen, ibuprofen]
[1]; 50 mM NH4OH
  Solubility (50 mM NH4OH): 6 mg/mL (≈ 29.1 mM)

## COc1ccc2c(c1)c(CC(=O)O)c(C)n2C(=O)c1ccc(Cl)cc1 [Indomethacin, indomethacin]
[2]
  Contact angle: 76.7
[1]
  Solubility in water: <0.001 mg/mL
  Solubility in water (words): ↑ with ↑ pH
[1]; line below '↑ with ↑ pH'
  Solubility in water: <1 mg/mL
[3]; pH 7.4, obtained from testing
  Stability in water solution (21° C.): *pH 7.4 up to 4 days

## COCCc1ccc(OCC(O)CNC(C)C)cc1 (stereo not shown) [Metoprolol tartrate, metoprolol tartrate]
[1]
  Solubility in water (words): freely
[3]; obtained from testing
  Stability in water solution (21° C.): *up to 60 days

## CC(C)(C)NCC(O)COc1cccc2c1CC(O)C(O)C2 (stereo not shown) [Nadolol, nadolol]
[4]
  solubility: 6.77 mg/mL (≈ 21.9 mM)
[3]; obtained from testing
  Stability in water solution (21° C.): *up to 30 days
